Data as given in US20250388565A1, “ESTROGEN RECEPTOR ALPHA DEGRADERS AND METHODS OF USE THEREOF” (Relay Therapeutics, Inc., priority 2022, published 2025).

These compounds were tested against T1, ERα protein (HiBiT-tagged) in ESR1_HiBiT KI MCF7 cells (Homo sapiens, UniProt P03372) (assay: Nano Glo HiBiT Lytic Degradation Assay). Conditions: 6 hours with compound, 14-point dose response 1:3, bell-shape curve fit, half-maximal effect of first Hill model, read-out: MCF7 ESR1 HiBiT - (DC50).
T1 sequence (P03372 1-595): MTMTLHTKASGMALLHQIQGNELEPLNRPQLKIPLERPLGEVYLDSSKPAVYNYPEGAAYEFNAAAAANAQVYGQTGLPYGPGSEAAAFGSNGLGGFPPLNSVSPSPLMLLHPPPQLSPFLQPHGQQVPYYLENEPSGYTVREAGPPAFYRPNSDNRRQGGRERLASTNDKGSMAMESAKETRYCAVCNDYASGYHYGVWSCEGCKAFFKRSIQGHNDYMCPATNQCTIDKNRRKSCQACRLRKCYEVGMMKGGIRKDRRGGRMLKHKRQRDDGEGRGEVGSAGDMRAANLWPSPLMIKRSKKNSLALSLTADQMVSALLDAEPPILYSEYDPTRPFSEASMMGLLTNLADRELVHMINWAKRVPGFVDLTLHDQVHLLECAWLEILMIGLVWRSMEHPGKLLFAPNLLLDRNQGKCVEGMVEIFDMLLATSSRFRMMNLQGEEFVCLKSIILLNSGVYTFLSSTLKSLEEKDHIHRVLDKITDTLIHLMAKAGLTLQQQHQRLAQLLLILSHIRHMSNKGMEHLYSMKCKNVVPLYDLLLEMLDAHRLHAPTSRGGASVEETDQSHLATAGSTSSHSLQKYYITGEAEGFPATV
Assay type: cell-based
Outline: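 ESR1_HiBiT knock-in MCF7 cells were seeded 24 h before treatment, then exposed to compounds for 6 h at 37° C (14-point 1:3 curves, 10 mM top stock, 0.1% DMSO final, duplicates). HiBiT-ERα was read by lytic LgBiT luminescence, background-subtracted and normalized to DMSO. DC50 was taken from the half-maximal point of the first Hill component of a bell-shaped fit.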

Row | DC50 | SMILES
1 | 20 nM | O=C1CCC(N2Cc3cc([C@@H]4CCN(CC5CCN(c6ccc([C@@H]7c8ccc(O)cc8CC[C@@H]7c7ccccc7)cc6)CC5)CC4(F)F)ccc3C2=O)C(=O)N1 (single isomer, unassigned) [II-91]
2 | 6 nM | O=C1CCC(N2Cc3cc([C@H]4CCN(CC5CCN(c6ccc([C@@H]7c8ccc(O)cc8CC[C@@H]7c7ccccc7)cc6)CC5)CC4(F)F)ccc3C2=O)C(=O)N1 (single isomer, unassigned) [II-92]
3 | 0.83 nM | O=C1CC[C@H](N2Cc3cc(N4CC5(CCN(CC6CCN(c7ccc([C@@H]8c9ccc(O)cc9CC[C@@H]8c8ccccc8)cc7)CC6)CC5)C4)ccc3C2=O)C(=O)N1 (single isomer, unassigned) [II-95]
4 | ≥ 10000 nM | O=C1CC[C@H](N2Cc3cc(N4CC5(CCN(CC6CCN(c7ccc([C@H]8c9ccc(O)cc9CC[C@H]8c8ccccc8)cc7)CC6)CC5)C4)ccc3C2=O)C(=O)N1 (single isomer, unassigned) [II-96]
5 | 2.82 nM | O=C1CCC(N2Cc3cc([C@@H]4CCN(CC5CCN(c6ccc([C@@H]7c8ccc(O)cc8CC[C@@H]7c7ccccc7)cc6)CC5)C[C@H]4O)ccc3C2=O)C(=O)N1 (single isomer, unassigned) [II-106]
6 | 3.91 nM | O=C1CCC(N2Cc3cc([C@H]4CCN(CC5CCN(c6ccc([C@@H]7c8ccc(O)cc8CC[C@@H]7c7ccccc7)cc6)CC5)C[C@@H]4O)ccc3C2=O)C(=O)N1 (single isomer, unassigned) [II-107]
7 | 0.45 nM | O=C1CCC(N2Cc3cc([C@H]4CCN(CC5CCN(c6ccc([C@@H]7c8ccc(O)cc8CC[C@@H]7c7ccccc7)cc6)CC5)C[C@H]4O)ccc3C2=O)C(=O)N1 (single isomer, unassigned) [II-108]

More lines, now with the values behind:

Row | SMILES | DC50
8 | CC(C)[C@H]1CCc2cc(O)ccc2[C@H]1c1ccc(N2CCC(CN3CCN(c4ccc5c(c4)CN(C4CCC(=O)NC4=O)C5=O)CC3)CC2)cc1 (stereo in doubt) [Compound I-128, (R)-3-(5-(4-((1-(4-((1R,2R)-6-hydroxy-2-isopropyl-1,2,3,4-tetrahydronaphthalen-1-yl)phenyl)piperidin-4-yl)methyl)piperazin-1-yl)-1-oxoisoindolin-2-yl)piperidine-2,6-dione] | 0.1 nM
9 | CC(C)[C@@H]1CCc2cc(O)ccc2[C@@H]1c1ccc(N2CCC(CN3CCN(c4ccc5c(c4)CN(C4CCC(=O)NC4=O)C5=O)CC3)CC2)cc1 (stereo in doubt) [Compound I-129, (R)-3-(5-(4-((1-(4-((1S,2S)-6-hydroxy-2-isopropyl-1,2,3,4-tetrahydronaphthalen-1-yl)phenyl)piperidin-4-yl)methyl)piperazin-1-yl)-1-oxoisoindolin-2-yl)piperidine-2,6-dione] | 5 nM
10 | O=C1CC[C@H](N2Cc3cc(N4CCN(CC5CCN(c6ccc(C7c8ccc(O)cc8CCC7c7ccncc7)cc6)CC5)CC4)ccc3C2=O)C(=O)N1 (stereo in doubt) [Compound I-133, (S)-3-(5-(4-((1-(4-((1R,2S)-6-hydroxy-2-(pyridine-4-yl)-1,2,3,4-tetrahydronaphthalen-1-yl)phenyl)piperidin-4-yl)methyl)piperazin-1-yl)-1-oxoisoindolin-2-yl)piperidine-2,6-dione] | ≥ 10000 nM
11 | O=C1CC[C@H](N2Cc3cc(N4CCN(CC5CCN(c6ccc(C7c8ccc(O)cc8CCC7C7CCCCC7)cn6)CC5)CC4)ccc3C2=O)C(=O)N1 (stereo in doubt) [Compound I-154, (S)-3-(5-(4-((1-(5-((1S,2R)-2-cyclohexyl-6-hydroxy-1,2,3,4-tetrahydronaphthalen-1-yl)pyridin-2-yl)piperidin-4-yl)methyl)piperazin-1-yl)-1-oxoisoindolin-2-yl)piperidine-2,6-dione] | 3300 nM
12 | O=C1CC[C@H](N2Cc3cc(N4CCN(CC5CCN(c6ccc(C7c8ccc(O)cc8CCC7C7CCCCC7)cn6)CC5)CC4)ccc3C2=O)C(=O)N1 (stereo in doubt) [Compound I-155, (S)-3-(5-(4-((1-(5-((1R,2S)-2-cyclohexyl-6-hydroxy-1,2,3,4-tetrahydronaphthalen-1-yl)pyridin-2-yl)piperidin-4-yl)methyl)piperazin-1-yl)-1-oxoisoindolin-2-yl)piperidine-2,6-dione] | 1 nM
13 | O=C1CCC(N2Cc3cc(N4CCN(CC5CCN(c6c(F)cc([C@@H]7c8ccc(O)cc8CC[C@@H]7C7CCCCC7)cc6F)CC5)CC4)ccc3C2=O)C(=O)N1 (stereo in doubt) [Compound I-159, (R)-3-(5-(4-((1-(4-((1R,2R)-2-cyclohexyl-6-hydroxy-1,2,3,4-tetrahydronaphthalen-1-yl)-2,6-difluorophenyl)piperidin-4-yl)methyl)piperazin-1-yl)-1-oxoisoindolin-2-yl)piperidine-2,6-dione] | 10 nM
14 | O=C1CCC(N2Cc3cc(N4CCN(CC5CCN(c6c(F)cc([C@H]7c8ccc(O)cc8CC[C@H]7C7CCCCC7)cc6F)CC5)CC4)ccc3C2=O)C(=O)N1 (stereo in doubt) [Compound I-160, (R)-3-(5-(4-((1-(4-((1S,2S)-2-cyclohexyl-6-hydroxy-1,2,3,4-tetrahydronaphthalen-1-yl)-2,6-difluorophenyl)piperidin-4-yl)methyl)piperazin-1-yl)-1-oxoisoindolin-2-yl)piperidine-2,6-dione] | ≥ 10000 nM
15 | O=C1CCC(c2cccc(N3CCC4C3CCN4CC3CCN(c4ccc([C@@H]5c6ccc(O)cc6CC[C@@H]5c5ccccc5)cc4)CC3)c2)C(=O)N1 (stereo in doubt) [Compound I-178, 3-(3-((3aS,6aS)-4-((1-(4-((1R,2S)-6-hydroxy-2-phenyl-1,2,3,4-tetrahydronaphthalen-1-yl)phenyl)piperidin-4-yl)methyl)hexahydropyrrolo[3,2-b]pyrrol-1 (2H)-yl)phenyl)piperidine-2,6-dione] | 3300 nM
16 | O=C1CCC(c2ccc3c(c2)CN(C2CCN(CC4CCN(c5ccc([C@H]6c7ccc(O)cc7CC[C@H]6c6ccccc6)cc5)CC4)CC2)CC3)C(=O)N1 (stereo in doubt) [Compound I-185, 3-(2-(1-((1-(4-((1S,2R)-6-hydroxy-2-phenyl-1,2,3,4-tetrahydronaphthalen-1-yl)phenyl)piperidin-4-yl)methyl)piperidin-4-yl)-1,2,3,4-tetrahydroisoquinolin-7-yl)piperidine-2,6-dione] | 737 nM
17 | Cc1ccc([C@@H]2CC(F)(F)c3cc(O)ccc3[C@@H]2c2ccc(N3CCC(CN4CCN(c5ccc6c(c5)CN(C5CCC(=O)NC5=O)C6=O)CC4)CC3)cc2)cc1 (stereo in doubt) [Compound I-321, (R)-3-(5-(4-((1-(4-((1S,2R)-4,4-difluoro-6-hydroxy-2-(p-tolyl)-1,2,3,4-tetrahydronaphthalen-1-yl)phenyl)piperidin-4-yl)methyl)piperazin-1-yl)-1-oxoisoindolin-2-yl)piperidine-2,6-dione] | 0.44 nM
18 | O=C1CC[C@H](N2Cc3cc(N4CCN(CC5CCN(c6ccc([C@@H]7c8ccc(O)cc8CO[C@@H]7c7ccccc7)cc6)CC5)CC4)ccc3C2=O)C(=O)N1 [Compound I-3, (S)-3-(5-(4-((1-(4-((3S,4R)-7-hydroxy-3-phenylisochroman-4-yl)phenyl)piperidin-4-yl)methyl)piperazin-1-yl)-1-oxoisoindolin-2-yl)piperidine-2,6-dione] | 0.27 nM
